Assay results from the kinase profiling compilation of Christmann-Franck et al. (2016).

How the values were obtained:
Experiment in all cases: KINOMEscan competition binding
Details in all cases: compound 1.0 µM
[1] = target: PRKCE (human) (UniProt Q02156)
[2] = target: MAPK12 (human) (UniProt P53778)
[3] = target: CHEK1 (human) (UniProt O14757)
[4] = target: MAP3K4 (human) (UniProt Q9Y6R4)
[5] = target: SRMS (human) (UniProt Q9H3Y6)
[6] = target: RPS6KA5 KD1 (human) (UniProt O75582)
[7] = target: MAPK9 (human) (UniProt P45984)
[8] = target: PIK3CB (human) (UniProt P42338)
[9] = target: OXSR1 (human) (UniProt O95747)
[10] = target: SGK110 (human) (UniProt P0C264)
[11] = target: CRK2 (P.falciparum) (UniProt P61075)
[12] = target: ZAP70 (human) (UniProt P43403)
[13] = target: SYK (human) (UniProt P43405)
[14] = target: CSNK2A2 (human) (UniProt P19784)
[15] = tested on: PIK3CA (human), P42336 [Q546K]
[16] = target: TNK1 (human) (UniProt Q13470)
[17] = target: NTRK3 (human) (UniProt Q16288)
[18] = target: ANKK1 (human) (UniProt Q8NFD2)
[19] = target: CSK (human) (UniProt P41240)
[20] = target: BMPR1B (human) (UniProt O00238)
[21] = target: SBK1 (human) (UniProt Q52WX2)
[22] = target: WEE2 (human) (UniProt P0C1S8)
[23] = target: PIP4K2C (human) (UniProt Q8TBX8)
[24] = tested on: EGFR (human), P00533 [752-759 del]
[25] = target: DMPK (human) (UniProt Q09013)
[26] = target: MAP3K2 (human) (UniProt Q9Y2U5)
[27] = target: HUNK (human) (UniProt P57058)
[28] = target: MYLK2 (human) (UniProt Q9H1R3)
[29] = target: MAK (human) (UniProt P20794)
[30] = target: RPS6KA1 KD1 (human) (UniProt Q15418)
[31] = target: PRKD3 (human) (UniProt O94806)
[32] = target: MAP3K6 (human) (UniProt O95382)
[33] = target: MELK (human) (UniProt Q14680)
[34] = target: PIP5K1C (human) (UniProt O60331)
[35] = tested on: ABL1 (human), P00519 [Y253F]
[36] = target: SNRK (human) (UniProt Q9NRH2)
[37] = target: CDK4 CCND1 (human) (UniProt P11802+P24385)
[38] = tested on: EGFR (human), P00533 [L861Q]
[39] = target: MKNK2 (human) (UniProt Q9HBH9)
[40] = target: TLK2 (human) (UniProt Q86UE8)
[41] = target: MAPK6 (human) (UniProt Q16659)
[42] = target: RPS6KA2 KD1 (human) (UniProt Q15349)
[43] = target: CDKL1 (human) (UniProt Q00532)
Sequence of CDKL1 (human) (Q00532 whole entry, looked up): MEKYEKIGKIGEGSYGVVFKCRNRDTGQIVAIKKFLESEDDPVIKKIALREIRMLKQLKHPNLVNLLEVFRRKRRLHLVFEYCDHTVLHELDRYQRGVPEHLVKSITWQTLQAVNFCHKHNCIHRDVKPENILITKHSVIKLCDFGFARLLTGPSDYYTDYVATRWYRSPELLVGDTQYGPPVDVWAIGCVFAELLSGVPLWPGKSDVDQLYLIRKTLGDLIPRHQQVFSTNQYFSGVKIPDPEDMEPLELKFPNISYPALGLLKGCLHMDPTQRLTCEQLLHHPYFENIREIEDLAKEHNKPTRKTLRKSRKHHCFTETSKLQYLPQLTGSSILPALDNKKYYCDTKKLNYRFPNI

Sequence of MAPK9 (human) (P45984 whole entry, looked up): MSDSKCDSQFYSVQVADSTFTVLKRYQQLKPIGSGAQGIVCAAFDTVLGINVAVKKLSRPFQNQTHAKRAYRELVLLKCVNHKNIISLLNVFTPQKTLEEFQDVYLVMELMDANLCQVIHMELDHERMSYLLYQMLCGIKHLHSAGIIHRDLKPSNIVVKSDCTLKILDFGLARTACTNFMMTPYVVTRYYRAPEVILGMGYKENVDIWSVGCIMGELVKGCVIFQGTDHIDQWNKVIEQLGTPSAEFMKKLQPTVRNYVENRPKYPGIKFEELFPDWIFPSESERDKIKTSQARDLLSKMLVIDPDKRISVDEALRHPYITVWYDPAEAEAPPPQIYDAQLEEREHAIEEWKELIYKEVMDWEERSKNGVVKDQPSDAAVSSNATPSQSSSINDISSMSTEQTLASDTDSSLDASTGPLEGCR
Sequence of MELK (human) (Q14680 whole entry, looked up): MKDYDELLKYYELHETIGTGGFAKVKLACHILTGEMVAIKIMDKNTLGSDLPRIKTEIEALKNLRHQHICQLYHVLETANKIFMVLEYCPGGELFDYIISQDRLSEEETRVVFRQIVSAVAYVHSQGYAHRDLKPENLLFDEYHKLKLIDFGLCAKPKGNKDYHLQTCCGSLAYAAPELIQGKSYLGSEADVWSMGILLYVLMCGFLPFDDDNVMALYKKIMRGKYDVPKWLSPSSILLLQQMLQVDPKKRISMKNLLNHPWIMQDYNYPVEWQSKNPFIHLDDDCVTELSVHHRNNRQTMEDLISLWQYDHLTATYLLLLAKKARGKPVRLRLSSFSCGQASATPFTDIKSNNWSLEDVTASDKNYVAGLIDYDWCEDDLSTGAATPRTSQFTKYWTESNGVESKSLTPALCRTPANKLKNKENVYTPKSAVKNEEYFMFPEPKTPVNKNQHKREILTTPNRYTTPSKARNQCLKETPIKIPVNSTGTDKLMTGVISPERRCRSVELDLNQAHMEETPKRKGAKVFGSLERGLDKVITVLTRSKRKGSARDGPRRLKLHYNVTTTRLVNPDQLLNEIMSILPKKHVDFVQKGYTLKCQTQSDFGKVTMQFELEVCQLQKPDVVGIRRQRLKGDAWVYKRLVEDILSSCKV
Sequence of MAK (human) (P20794 whole entry, looked up): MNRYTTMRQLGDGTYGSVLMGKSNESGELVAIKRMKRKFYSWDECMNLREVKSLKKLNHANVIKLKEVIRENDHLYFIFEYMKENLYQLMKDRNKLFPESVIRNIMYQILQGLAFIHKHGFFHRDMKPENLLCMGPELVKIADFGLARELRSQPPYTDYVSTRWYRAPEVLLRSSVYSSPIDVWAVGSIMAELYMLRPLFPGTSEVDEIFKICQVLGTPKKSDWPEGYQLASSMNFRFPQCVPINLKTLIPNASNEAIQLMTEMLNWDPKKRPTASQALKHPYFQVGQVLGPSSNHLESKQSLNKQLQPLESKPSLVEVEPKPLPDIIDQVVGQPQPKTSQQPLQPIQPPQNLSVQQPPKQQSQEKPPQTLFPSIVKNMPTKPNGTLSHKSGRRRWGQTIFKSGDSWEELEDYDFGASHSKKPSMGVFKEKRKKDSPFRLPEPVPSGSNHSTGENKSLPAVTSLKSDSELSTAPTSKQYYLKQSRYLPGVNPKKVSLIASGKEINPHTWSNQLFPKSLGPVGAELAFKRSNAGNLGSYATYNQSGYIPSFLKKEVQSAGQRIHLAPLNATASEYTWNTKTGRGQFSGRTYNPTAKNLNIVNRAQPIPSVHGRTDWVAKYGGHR
Sequence of SNRK (human) (Q9NRH2 whole entry, looked up): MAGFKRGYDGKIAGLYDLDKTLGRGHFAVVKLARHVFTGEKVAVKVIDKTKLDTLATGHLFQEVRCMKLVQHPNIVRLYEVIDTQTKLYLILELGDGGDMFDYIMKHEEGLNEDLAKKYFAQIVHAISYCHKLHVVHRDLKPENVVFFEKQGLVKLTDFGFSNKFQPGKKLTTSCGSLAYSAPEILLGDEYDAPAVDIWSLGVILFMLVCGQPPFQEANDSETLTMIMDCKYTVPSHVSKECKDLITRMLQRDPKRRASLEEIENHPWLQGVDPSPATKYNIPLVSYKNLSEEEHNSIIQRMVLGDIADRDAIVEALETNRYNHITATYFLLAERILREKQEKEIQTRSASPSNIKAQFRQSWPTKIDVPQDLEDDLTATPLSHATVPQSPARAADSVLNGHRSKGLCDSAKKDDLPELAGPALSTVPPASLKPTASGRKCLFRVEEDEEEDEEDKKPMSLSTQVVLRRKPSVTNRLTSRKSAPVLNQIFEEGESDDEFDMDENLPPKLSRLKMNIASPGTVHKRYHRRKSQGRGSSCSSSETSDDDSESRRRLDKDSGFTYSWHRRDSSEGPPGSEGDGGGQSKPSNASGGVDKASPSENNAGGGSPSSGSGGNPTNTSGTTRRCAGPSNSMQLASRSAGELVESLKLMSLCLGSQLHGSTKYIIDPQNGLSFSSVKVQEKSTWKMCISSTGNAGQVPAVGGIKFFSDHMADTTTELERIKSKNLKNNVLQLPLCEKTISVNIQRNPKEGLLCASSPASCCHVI
Sequence of PIP4K2C (human) (Q8TBX8 whole entry, looked up): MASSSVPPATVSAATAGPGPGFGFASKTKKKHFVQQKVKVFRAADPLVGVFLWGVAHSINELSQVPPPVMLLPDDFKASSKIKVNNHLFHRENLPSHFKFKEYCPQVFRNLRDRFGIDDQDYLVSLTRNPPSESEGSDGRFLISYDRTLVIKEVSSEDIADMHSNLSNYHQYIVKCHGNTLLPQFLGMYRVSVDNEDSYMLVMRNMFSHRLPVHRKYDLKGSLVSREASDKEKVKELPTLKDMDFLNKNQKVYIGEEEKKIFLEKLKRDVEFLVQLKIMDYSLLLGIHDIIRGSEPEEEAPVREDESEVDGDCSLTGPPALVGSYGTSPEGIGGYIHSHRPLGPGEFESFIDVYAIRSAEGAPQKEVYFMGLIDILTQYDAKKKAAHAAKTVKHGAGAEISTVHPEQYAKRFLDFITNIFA
Sequence of CSNK2A2 (human) (P19784 whole entry, looked up): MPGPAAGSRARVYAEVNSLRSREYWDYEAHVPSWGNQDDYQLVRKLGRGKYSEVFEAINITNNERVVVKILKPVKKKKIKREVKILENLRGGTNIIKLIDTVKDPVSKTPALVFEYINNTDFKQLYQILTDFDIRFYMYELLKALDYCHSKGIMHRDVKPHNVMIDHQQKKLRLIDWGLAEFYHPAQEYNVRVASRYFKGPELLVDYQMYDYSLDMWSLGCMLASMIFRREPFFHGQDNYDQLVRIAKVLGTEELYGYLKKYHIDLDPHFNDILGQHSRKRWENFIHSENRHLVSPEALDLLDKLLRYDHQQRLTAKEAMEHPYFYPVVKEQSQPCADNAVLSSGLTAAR
Sequence of CDK4 CCND1 (human) (P11802 whole entry, looked up): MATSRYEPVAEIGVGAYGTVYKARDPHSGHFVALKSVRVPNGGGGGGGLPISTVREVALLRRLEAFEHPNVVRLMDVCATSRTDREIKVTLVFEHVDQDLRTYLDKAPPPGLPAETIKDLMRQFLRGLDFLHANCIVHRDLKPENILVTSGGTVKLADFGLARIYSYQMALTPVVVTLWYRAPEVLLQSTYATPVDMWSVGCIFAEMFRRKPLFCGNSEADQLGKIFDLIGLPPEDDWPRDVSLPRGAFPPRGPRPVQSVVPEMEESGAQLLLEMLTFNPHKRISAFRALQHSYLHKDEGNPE
Sequence of CDK4 CCND1 (human) (P24385 whole entry, looked up): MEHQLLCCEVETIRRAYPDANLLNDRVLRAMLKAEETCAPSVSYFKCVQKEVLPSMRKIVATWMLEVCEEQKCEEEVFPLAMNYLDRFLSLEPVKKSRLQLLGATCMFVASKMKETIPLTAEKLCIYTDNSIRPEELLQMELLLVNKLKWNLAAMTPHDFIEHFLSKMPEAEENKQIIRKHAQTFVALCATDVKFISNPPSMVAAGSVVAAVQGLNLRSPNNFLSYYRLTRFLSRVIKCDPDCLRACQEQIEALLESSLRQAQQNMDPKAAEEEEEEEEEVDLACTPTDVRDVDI
Sequence of RPS6KA5 KD1 (human) (O75582 whole entry, looked up): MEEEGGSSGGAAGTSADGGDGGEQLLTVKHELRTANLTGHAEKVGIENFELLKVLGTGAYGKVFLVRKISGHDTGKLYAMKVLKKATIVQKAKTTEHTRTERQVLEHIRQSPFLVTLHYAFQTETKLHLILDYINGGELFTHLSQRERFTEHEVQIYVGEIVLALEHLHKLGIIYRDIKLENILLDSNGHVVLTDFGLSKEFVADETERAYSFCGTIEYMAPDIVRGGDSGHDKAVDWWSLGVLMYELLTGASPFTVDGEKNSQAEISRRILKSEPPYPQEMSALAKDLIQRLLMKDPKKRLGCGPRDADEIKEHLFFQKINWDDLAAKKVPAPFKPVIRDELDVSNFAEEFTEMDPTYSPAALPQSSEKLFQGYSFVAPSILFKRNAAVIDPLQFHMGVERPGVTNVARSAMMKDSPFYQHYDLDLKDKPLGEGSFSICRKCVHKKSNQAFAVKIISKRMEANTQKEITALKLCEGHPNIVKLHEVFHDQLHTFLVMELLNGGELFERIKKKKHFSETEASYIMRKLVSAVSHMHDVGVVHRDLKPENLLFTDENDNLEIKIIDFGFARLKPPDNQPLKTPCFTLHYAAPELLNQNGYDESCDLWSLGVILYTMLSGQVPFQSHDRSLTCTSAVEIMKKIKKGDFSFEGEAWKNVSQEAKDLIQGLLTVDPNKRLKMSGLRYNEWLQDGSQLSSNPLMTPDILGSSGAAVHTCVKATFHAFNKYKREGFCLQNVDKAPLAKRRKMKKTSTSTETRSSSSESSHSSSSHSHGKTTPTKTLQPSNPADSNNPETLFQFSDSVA

COCCNCCCn1c(C(=O)CF)c(-c2ccc(C)cc2)c2c(N)ncnc21
kinase still bound, per cent of control [1]: 100%
kinase still bound, per cent of control [2]: 100%
kinase still bound, per cent of control [3]: 100%
kinase still bound, per cent of control [4]: 100%
kinase still bound, per cent of control [5]: 99%
kinase still bound, per cent of control [6]: 79%
kinase still bound, per cent of control [7]: 94%
kinase still bound, per cent of control [8]: 89%
kinase still bound, per cent of control [9]: 100%
kinase still bound, per cent of control [10]: 100%
kinase still bound, per cent of control [11]: 100%
kinase still bound, per cent of control [12]: 85%
kinase still bound, per cent of control [13]: 96%
kinase still bound, per cent of control [14]: 99%
kinase still bound, per cent of control [15]: 100%
kinase still bound, per cent of control [16]: 100%
kinase still bound, per cent of control [17]: 91%
kinase still bound, per cent of control [18]: 100%
kinase still bound, per cent of control [19]: 95%
kinase still bound, per cent of control [20]: 85%
kinase still bound, per cent of control [21]: 98%
kinase still bound, per cent of control [22]: 100%
kinase still bound, per cent of control [23]: 100%
kinase still bound, per cent of control [24]: 90%
kinase still bound, per cent of control [25]: 84%
kinase still bound, per cent of control [26]: 90%
kinase still bound, per cent of control [27]: 100%
kinase still bound, per cent of control [28]: 95%
kinase still bound, per cent of control [29]: 95%
kinase still bound, per cent of control [30]: 78%
kinase still bound, per cent of control [31]: 100%
kinase still bound, per cent of control [32]: 100%
kinase still bound, per cent of control [33]: 95%
kinase still bound, per cent of control [34]: 100%
kinase still bound, per cent of control [35]: 94%
kinase still bound, per cent of control [36]: 99%
kinase still bound, per cent of control [37]: 98%
kinase still bound, per cent of control [38]: 84%
kinase still bound, per cent of control [39]: 92%
kinase still bound, per cent of control [40]: 95%
kinase still bound, per cent of control [41]: 100%
kinase still bound, per cent of control [42]: 83%
kinase still bound, per cent of control [43]: 100%
